From PMC4786873, “Spacer-free BODIPY fluorogens in antimicrobial peptides for direct imaging of fungal infection in human tissue” (Nature Communications, 2016)
“Also recorded” adds a separate entry of the source. Where two headings read alike, the source gives them in different places. Starred links: 1 amine or outer side, 2 acyl side, 3 side chain; linkers in the order of their positions; H or OH if unused. Non-standard residues stand in square brackets, D forms with d. Residues, ends and D or L forms follow the SMILES beside them. No end group written: not given here. X1 = CC1=CC(C)=[N+]2C1=C(c1cccc(-c3[nH]c4ccccc4c3C[C@H](N[*:1])C(=O)[*:2])c1)c1c(C)cc(C)n1[B-]2(F)F

Legend:
[1] = system: Aspergillus fumigatus (strain CEA10); assay type: cell-based; conditions: for activity / affinity in A. fumigatus, in words: values only in Supplementary Fig. 8 (picture not shown), 9 compared with linear PAF26 (4)
Experimental: The A. fumigatus (strain CEA10, source: FGSC A1163) was grown on Vogel's medium at 37 °C for 5 days before the spores (conidia) were harvested. Peptides 4–8 were incubated at different concentrations with A. fumigatus conidia to reach a final volume of 100 μl per well. The final conidia concentration was 5 × 10^5 cells ml^−1 in 10% Vogel's medium. After 24 h incubation at 37 °C in 96 well-plates, fungal growth was determined by measuring OD610nm in a spectrophotometer. IC50 values were determined using four parameter logistic regression. Data is represented as means±s.e.m from at least three independent experiments with n=3.
Antimicrobial and ha emolysis assays.
Supplementary Figure 4. Determination of IC50 values of BODIPY-labelled peptides 5- 8 in A. fumigatus. Cell viability plots and non- linear regressions for peptides 5 (A), 6 (B), 7 (C) and 8 (D).
Peptides were incubated at different concentrations with A. fumigatus conidia to r each a final volum e of 100 μ L per well. T he final conidia concentration was 5 × 10^5 cells/m L in 10% Vogel’s m edium . After 24 h incubation at 37 °C in 96 well-plates, fungal growth was determ ined by m easuring the optical densit y at 610 nm . The IC50 values were determ ined using four param eter logistic regression. Data represented as m eans ± s.e.m (n=3).
(§1) (1 picture or pasted object on this page, not shown here)

[2] = system: Escherichia coli (ATCC 25922); experiment: In vitro antimicrobial activity (bacterial cell viability, OD600); assay type: cell-based; conditions: 16 h incubation with peptide at its respective IC50 concentration (A. fumigatus), OD600 nm, n=3
Experimental: (§2) P. aeruginosa (ATCC 47085), K. pneumoniae (ATCC BAA1706) and E. coli (ATCC 25922) were grown on Lysogeny Broth (LB) agar plates and stored at 4 °C. For assays, a single colony of bacteria was taken into 10 mL liquid broth and incubated at 37 °C for 16 h. Cultures were centrifuged at 4,000 r.p.m. for 5 min and the pellet was re-suspended in 1 ml of fresh PBS and washed three times. Cultures were reconstituted to 1.0 OD595 nm, then diluted 1:1,000 and incubated with compounds 4–8 at the indicated concentrations (that is, concentrations matching the IC50 values in A. fumigatus for all compounds, except for compounds 3 and 5a where a top concentration of 20 μM was used). Cell viability was monitored over 16 h by measuring OD600 nm in a spectrophotometer. Data is represented as % of cell viability as means from at least two independent experiments with n=3.

[3] = system: Pseudomonas aeruginosa (ATCC 47085); experiment: as above; assay type: cell-based; conditions: 16 h incubation with peptide at its respective IC50 concentration (A. fumigatus), OD600 nm, n=3
Experimental: as §2

[4] = system: Klebsiella pneumoniae (ATCC BAA1706); experiment: as above; assay type: cell-based; conditions: 16 h incubation with peptide at its respective IC50 concentration (A. fumigatus), OD600 nm, n=3
Experimental: as §2

[5] = Chemical stability in human bronchoalveolar lavages; assay type: in vitro ADME; conditions: human bronchoalveolar lavage from patients with acute respiratory distress syndrome, 37 °C; for remaining at 1 h, 20 μM / remaining at 3 h, 20 μM / remaining at 24 h, 20 μM: HPLC-UV (C18); for remaining at 1 h, 20 μM: read-out: chemical stability in human bronchoalveolar lavage, percentage at 1 h (measure not given); for remaining at 3 h, 20 μM: read-out: chemical stability in human bronchoalveolar lavage, percentage at 3 h (measure not given); for remaining at 24 h, 20 μM: read-out: chemical stability in human bronchoalveolar lavage, percentage at 24 h (measure not given)
Experimental: Peptides 5 and 8 (20 μM) were dissolved in human bronchoalveolar lavage samples (total volume: 100 μl) and incubated at 37 °C for the indicated times. Samples were injected into an high-performance liquid chromatography Agilent 1100 separations module connected to a UV detector with a Discovery C18 column (5 μm, 4.6 × 50 mm). Matrix-assisted laser desorption/ionization data was recorded on a Bruker Ultraflex mass spectrometer using sinapinic acid as the matrix.
Supplementary Figure 9 . Stability of cyclic (8) and linear (5) mono-BODIPY labelled peptid es in human bronchoalveolar lavage samples from p atients w ith acute respiratory distress synd rome.
Pept ides were incubat ed in hum an bronchoalveolar lavage sam ples at 37 °C and anal ysed b y H PLC at the tim e points indicated. Arrows point at the peak s corresponding to the intact linear peptide.
as §1

[6] = system: human lung A549 epithelial cells; experiment: MTT cell viability assay; assay type: cell-based; conditions: MTT, 0, 1.25, 2.5, 5 and 10 μM, 4 h at 37 °C, absorbance 570 nm, means ± s.d., n=4
Experimental: Cell viability was determ ined with a TACS® MTT Cell Proliferation assa y (Trevigen) according to the m anufacturer’s instructions. Briefly, hum an lung A549 epithelial cells were plated on 96-well plates the day before the experim ent, reaching 90- 95% confluence on the day of the experim ent. T he peptide 8 was added to the cells at different concentrations (0, 1.25, 2.5, 5 and 10 µM) and incubated at 37 °C for 4 h. After 4 h, cells were washed, treated according to the m anufacturer’s instructions and their absorbance values (570 nm) were m easured in a Syner gy HT spectrophotom eter (Biotek ). Cell viabilit y data was norm alised to the proliferation of cells without addition of the peptide 8.
Supplementary Figure 17. Cell proliferation assays. Viabilit y of hum an lung A549 epithelial cells after incubation with different concentrations of the peptide 8 . D ata r epresented as m eans ± s.d. (n=4).
as §1

[7] = system: human RBCs; experiment: Determination of haemolytic activity; assay type: cell-based; conditions: red cells of human, 1 h
Experimental: Erythrocytes were isolated from freshly drawn, anticoagulated human blood and diluted in PBS (1:5). An amount of 50 μl of erythrocyte suspension was added to 50 μl of compounds 4–8 at the indicated concentrations (that is, concentrations matching the IC50 values in A. fumigatus for all compounds, except for compounds 3 and 5a where a top concentration of 20 μM was used). 0.2% Triton X-100 was used as positive control and PBS as negative control. The plate was incubated at 37 °C for 1 h, each well was diluted with 150 μl of PBS and the plate was centrifuged at 1,200g for 15 min. A total of 100 μl of the supernatant from each well was transferred to a fresh plate, and the absorbance at 350 nm was measured in a microplate reader. Data is represented as % of cell viability as means from three independent experiments with n=3.
Supplementary Figure 6. Haemolytic activity of peptides 4-8 in human red blood cells (RBCs).
Peptides 4-8 and T riton X-100 (0.2% as positive control) were incubated with hum an RBCs at 37 °C and their viabilit y was assessed after 1 h. Data repres ented as m eans ± s.d. (n=3). *** for p < 0.001 was determ ined as a statis tically s ignificant difference between the c ell viabilities in PBS (phosphate buffer saline) and in T riton X-100.
as §1

[8] = conidia 5 × 10^5 cells/ml in 10% Vogel's medium, 24 h at 37 °C, OD610 nm, four parameter logistic regression, means±s.e.m., n=3, read-out: IC50 in Aspergillus fumigatus

With `CC1=CC(C)=[N+]2C1=C(c1cccc(-c3[nH]c4ccccc4c3C[C@H](NC(=O)[C@H](C)NC(=O)[C@H](C)NC(=O)[C@H](C)N)C(=O)N[C@@H](Cc3ccccc3)C(=O)N[C@@H](Cc3c[nH]c4ccccc34)C(N)=O)c1)c1c(C)cc(C)n1[B-]2(F)F` [5a] (H-AAA[X1]FW-NH2) the “activity / affinity in A. fumigatus, in words” value [1] was “poor activity”.
With `CC1=CC(C)=[N+]2C1=C(c1cccc(-c3[nH]c4ccccc4c3C[C@H](NC(=O)[C@H](CCCCN)NC(=O)[C@H](CCCCN)NC(=O)[C@@H](N)CCCNC(=N)N)C(=O)N[C@@H](C)C(=O)N[C@@H](C)C(N)=O)c1)c1c(C)cc(C)n1[B-]2(F)F` [5b] (H-RKK[X1]AA-NH2) the “activity / affinity in A. fumigatus, in words” value [1] was “reduced activity”.
With `CC1=CC(C)=[N+]2C1=C(c1cccc(-c3[nH]c4ccccc4c3C[C@H](NC(=O)[C@H](CCCCN)NC(=O)[C@H](CCCCN)NC(=O)[C@@H](N)CCCNC(=N)N)C(=O)N[C@@H](Cc3ccccc3)C(=O)N[C@@H](Cc3c[nH]c4ccccc34)C(N)=O)c1)c1c(C)cc(C)n1[B-]2(F)F` [compound 5] (H-RKK[X1]FW-NH2) the “cell viability, Escherichia coli” value [2] was 94%, the “cell viability, Pseudomonas aeruginosa” value [3] was greater than 99% and the “cell viability, Klebsiella pneumoniae” value [4] was 87%. For the same molecule, the IC50 [1, 8] was 3600 ± 100 nM, the remaining at 1 h, 20 μM ([5]; peptide 20 μM) was 49% and the remaining at 3 h, 20 μM ([5]; peptide 20 μM) was 2%. It also gave a remaining at 24 h, 20 μM ([5]; peptide 20 μM) of less than 1% and a half-life at 20 μM ([5]; peptide 20 μM, HPLC-UV) of less than 1 h.
For `CC1=CC(C)=[N+]2C1=C(c1cccc(-c3[nH]c4ccccc4c3C[C@H](NC(=O)[C@H](Cc3ccccc3)NC(=O)[C@H](Cc3c[nH]c4ccccc34)NC(=O)[C@H](CCCCN)NC(=O)[C@H](CCCCN)NC(=O)[C@@H](N)CCCNC(=N)N)C(N)=O)c1)c1c(C)cc(C)n1[B-]2(F)F` [compound 6] (H-RKKWF[X1]-NH2), the “cell viability, Escherichia coli” value [2] was 95%, the “cell viability, Pseudomonas aeruginosa” value [3] was greater than 99% and the “cell viability, Klebsiella pneumoniae” value [4] was 96%. For the same molecule, the IC50 [1, 8] was 3000 ± 100 nM.
In the case of `CC1=CC(C)=[N+]2C1=C(c1cccc(-c3[nH]c4ccccc4c3C[C@H](NC(=O)[C@H](Cc3ccccc3)NC(=O)[C@H](Cc3c(-c4cccc(C5=C6C(C)=CC(C)=[N+]6[B-](F)(F)n6c(C)cc(C)c65)c4)[nH]c4ccccc34)NC(=O)[C@H](CCCCN)NC(=O)[C@H](CCCCN)NC(=O)[C@@H](N)CCCNC(=N)N)C(N)=O)c1)c1c(C)cc(C)n1[B-]2(F)F` [compound 7], the “cell viability, Escherichia coli” value [2] is reported as 95%, the “cell viability, Pseudomonas aeruginosa” value [3] is reported as greater than 99% and the “cell viability, Klebsiella pneumoniae” value [4] is reported as 93%. The IC50 [1, 8] was 2500 ± 100 nM.
For `CC1=CC(C)=[N+]2C1=C(c1cccc(-c3[nH]c4ccccc4c3C[C@@H]3NC(=O)[C@H](CCCCN)NC(=O)[C@H](CCCCN)NC(=O)[C@H](CCCNC(=N)N)NC(=O)CNC(=O)[C@H](Cc4c[nH]c5ccccc45)NC(=O)[C@H](Cc4ccccc4)NC3=O)c1)c1c(C)cc(C)n1[B-]2(F)F` [compound 8] (cyclo(FWGRKK[X1])), the “cell viability, Escherichia coli” value [2] was 96%, the “cell viability, Pseudomonas aeruginosa” value [3] was greater than 99% and the “cell viability, Klebsiella pneumoniae” value [4] was 94%. The quantum yield in phospholipid membranes was 30%, the “affinity for fungal cells compared with peptide 5” value ([1]; comparison of IC50 values in A. fumigatus) was “around two-fold enhanced affinity” and the IC50 [1, 8] was 2000 ± 100 nM. The “stability in human bronchoalveolar lavages, in words” value ([5]; after 24 h, 20 μM, HPLC-UV) was “remained intact”, the remaining at 1 h, 20 μM ([5]; peptide 20 μM) was 99% and the remaining at 3 h, 20 μM ([5]; peptide 20 μM) was 99%. For the same molecule, the remaining at 24 h, 20 μM ([5]; peptide 20 μM) was 95% and the “cytotoxicity in human lung A549 epithelial cells, in words” value [6] was “No significant differences; also recorded: no cytotoxicity”.
In the case of “RKKWFW-NH2 [compound 4, reference compound]”, the “cell viability, Escherichia coli” value [2] is reported as greater than 99%, the “cell viability, Pseudomonas aeruginosa” value [3] is reported as greater than 99% and the “cell viability, Klebsiella pneumoniae” value [4] is reported as 93%. For the same molecule, the IC50 ([1]; strain CEA10, 24 h) was 7900 ± 200 nM and the “cell viability, human RBCs (haemolysis)” value [7] was 99%.
